What was measured:
Assay in all cases: cells
[1] = system: CP50-MEL-B; type: functional, cell-based, Homo sapiens; conditions: Homo sapiens, CP50-MEL-B;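 also: growth inhibition of the human cell line, measured with a cell viability read-out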
Description: SANGER: Inhibition of human CP50-MEL-B cell growth in a cell viability assay.

[2] = system: CTB-1; type: functional, cell-based; conditions: Homo sapiens
Description: SANGER: Inhibition of human CTB-1 cell growth in a cell viability assay.

[3] = system: D-263MG; type: functional, cell-based, Homo sapiens; conditions: Homo sapiens, D-263MG
Description: SANGER: Inhibition of human D-263MG cell growth in a cell viability assay.

[4] = system: GAK; type: functional, cell-based, Homo sapiens; conditions: Homo sapiens, GAK;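 also: cell growth inhibition read out by a cell viability assay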
Description: SANGER: Inhibition of human GAK cell growth in a cell viability assay.

[5] = system: GI-1; type: functional, cell-based, Homo sapiens; conditions: Homo sapiens, GI-1;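 also: growth inhibition of human GI-1 cells, measured with a cell viability readout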
Description: SANGER: Inhibition of human GI-1 cell growth in a cell viability assay.

[6] = system: HCC1187; type: functional, cell-based, Homo sapiens; conditions: Homo sapiens, HCC1187;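 also: growth inhibition of HCC1187 cells, read out with a cell viability assay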
Description: SANGER: Inhibition of human HCC1187 cell growth in a cell viability assay.

[7] = system: HCC1395; type: functional, cell-based, Homo sapiens; conditions: Homo sapiens, HCC1395;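 also: growth inhibition of HCC1395 cells, read out by a cell viability assay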
Description: SANGER: Inhibition of human HCC1395 cell growth in a cell viability assay.

[8] = system: HCE-4; type: functional, cell-based, Homo sapiens; conditions: Homo sapiens, HCE-4;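 also: cell viability assay measuring inhibition of growth in the human HCE-4 cell line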
Description: SANGER: Inhibition of human HCE-4 cell growth in a cell viability assay.

[9] = system: HL-60; type: functional, cell-based; conditions: Homo sapiens;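 also: growth inhibition of human HL-60 cells, read out with a cell viability assay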
Description: SANGER: Inhibition of human HL-60 cell growth in a cell viability assay.

[10] = system: HOS; type: functional, cell-based, Homo sapiens; conditions: Homo sapiens, HOS;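 also: growth inhibition of human HOS cells, read out with a cell viability assay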
Description: SANGER: Inhibition of human HOS cell growth in a cell viability assay.

[11] = system: HT-144; type: functional, cell-based, Homo sapiens; conditions: Homo sapiens, HT-144
Description: SANGER: Inhibition of human HT-144 cell growth in a cell viability assay.

[12] = system: HuTu80; type: functional, cell-based, Homo sapiens, HUTU-80; conditions: Homo sapiens, HuTu80;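 also: growth inhibition of HuTu80 human cells, determined with a cell viability readout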
Description: SANGER: Inhibition of human HUTU-80 cell growth in a cell viability assay.

[13] = system: HuCCT-1; type: functional, cell-based, Homo sapiens, HuCCT1; conditions: Homo sapiens, HuCCT-1;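 also: growth inhibition of HuCCT-1 cells, read out by a cell viability assay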
Description: SANGER: Inhibition of human HuCCT1 cell growth in a cell viability assay.

[14] = system: IA-LM; type: functional, cell-based, Homo sapiens; conditions: Homo sapiens, IA-LM;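 also: cell viability assay measuring growth inhibition of human IA-LM cells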
Description: SANGER: Inhibition of human IA-LM cell growth in a cell viability assay.

[15] = system: IGROV-1; type: functional, cell-based, Homo sapiens; conditions: Homo sapiens, IGROV-1;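 also: reduction of IGROV-1 cell growth, read out with a viability assay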
Description: SANGER: Inhibition of human IGROV-1 cell growth in a cell viability assay.

[16] = system: JEG-3; type: functional, cell-based, Homo sapiens; conditions: Homo sapiens, JEG-3;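 also: growth inhibition of human JEG-3 cells, read out with a cell viability assay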
Description: SANGER: Inhibition of human JEG-3 cell growth in a cell viability assay.

[17] = system: K5; type: functional, cell-based, Homo sapiens; conditions: Homo sapiens, K5
Description: SANGER: Inhibition of human K5 cell growth in a cell viability assay.

[18] = system: KG-1; type: functional, cell-based; conditions: Homo sapiens;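 also: growth inhibition of KG-1 cells, read out by a cell viability assay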
Description: SANGER: Inhibition of human KG-1 cell growth in a cell viability assay.

[19] = system: KU812 cell line; type: functional, cell-based; conditions: Homo sapiens;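 also: growth inhibition of KU812 cells, read out with a cell viability assay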
Description: SANGER: Inhibition of human KU812 cell growth in a cell viability assay.

[20] = system: MDA-MB-157; type: functional, cell-based, Homo sapiens; conditions: Homo sapiens, MDA-MB-157
Description: SANGER: Inhibition of human MDA-MB-157 cell growth in a cell viability assay.

[21] = system: MHH-PREB-1; type: functional, cell-based; conditions: Homo sapiens;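 also: cell viability assay measuring inhibition of proliferation of human MHH-PREB-1 cells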
Description: SANGER: Inhibition of human MHH-PREB-1 cell growth in a cell viability assay.

[22] = system: MPP-89; type: functional, cell-based, Homo sapiens; conditions: Homo sapiens, MPP-89;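 also: growth inhibition of human MPP-89 cells, read out with a cell viability assay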
Description: SANGER: Inhibition of human MPP-89 cell growth in a cell viability assay.

[23] = system: NCI-H1651; type: functional, cell-based, Homo sapiens; conditions: Homo sapiens, NCI-H1651;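 also: Read-out is a cell viability assay, with IC50 expressing inhibition of NCI-H1651 cell growth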
Description: SANGER: Inhibition of human NCI-H1651 cell growth in a cell viability assay.

[24] = system: NCI-H1755; type: functional, cell-based, Homo sapiens; conditions: Homo sapiens, NCI-H1755;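 also: cell viability readout used to measure growth inhibition of NCI-H1755 cells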
Description: SANGER: Inhibition of human NCI-H1755 cell growth in a cell viability assay.

[25] = system: NCI-H2052; type: functional, cell-based, Homo sapiens; conditions: Homo sapiens, NCI-H2052;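 also: growth inhibition of NCI-H2052 cells, read out with a cell viability assay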
Description: SANGER: Inhibition of human NCI-H2052 cell growth in a cell viability assay.

[26] = system: NCI-H23; type: functional, cell-based, Homo sapiens; conditions: Homo sapiens, NCI-H23;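 also: cell viability assay measuring growth inhibition of NCI-H23 cells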
Description: SANGER: Inhibition of human NCI-H23 cell growth in a cell viability assay.

[27] = system: NCI-H2347; type: functional, cell-based, Homo sapiens; conditions: Homo sapiens, NCI-H2347;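 also: growth inhibition of the cell line, read out with a cell viability assay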
Description: SANGER: Inhibition of human NCI-H2347 cell growth in a cell viability assay.

[28] = system: NCI-H596; type: functional, cell-based, Homo sapiens; conditions: Homo sapiens, NCI-H596;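 also: growth inhibition of NCI-H596 cells, read out with a cell viability assay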
Description: SANGER: Inhibition of human NCI-H596 cell growth in a cell viability assay.

[29] = system: NCI-H661; type: functional, cell-based, Homo sapiens; conditions: Homo sapiens, NCI-H661;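 also: cell viability assay read-out, IC50 being the concentration that inhibits growth of the cells by half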
Description: SANGER: Inhibition of human NCI-H661 cell growth in a cell viability assay.

[30] = system: NCI-H720; type: functional, cell-based; conditions: Homo sapiens;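 also: growth inhibition of human NCI-H720 cells determined by a cell viability assay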
Description: SANGER: Inhibition of human NCI-H720 cell growth in a cell viability assay.

[31] = system: NCI-H747; type: functional, cell-based; conditions: Homo sapiens;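 also: growth inhibition of human NCI-H747 cells, read out by a cell viability assay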
Description: SANGER: Inhibition of human NCI-H747 cell growth in a cell viability assay.

[32] = system: OAW-42; type: functional, cell-based, Homo sapiens; conditions: Homo sapiens, OAW-42;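 also: growth inhibition of OAW-42 cells, read out with a cell viability assay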
Description: SANGER: Inhibition of human OAW-42 cell growth in a cell viability assay.

[33] = system: ONS-76; type: functional, cell-based, Homo sapiens; conditions: Homo sapiens, ONS-76;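 also: growth inhibition of human ONS-76 cells, read out with a cell viability assay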
Description: SANGER: Inhibition of human ONS-76 cell growth in a cell viability assay.

[34] = system: P12-Ichikawa; type: functional, cell-based; conditions: Homo sapiens
[35] = system: RPMI-8866; type: functional, cell-based; conditions: Homo sapiens
Description: SANGER: Inhibition of human RPMI-8866 cell growth in a cell viability assay.

[36] = system: SBC-5; type: functional, cell-based, Homo sapiens; conditions: Homo sapiens, SBC-5;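 also: cell viability assay read-out, IC50 is the concentration that inhibits growth of the cells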
Description: SANGER: Inhibition of human SBC-5 cell growth in a cell viability assay.

[37] = system: SCC-25; type: functional, cell-based, Homo sapiens; conditions: Homo sapiens, SCC-25;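 also: growth inhibition of SCC-25 cells, measured with a cell viability assay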
Description: SANGER: Inhibition of human SCC-25 cell growth in a cell viability assay.

[38] = system: SK-MEL-24; type: functional, cell-based; conditions: Homo sapiens;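 also: growth inhibition read out by a cell viability assay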
Description: SANGER: Inhibition of human SK-MEL-24 cell growth in a cell viability assay.

[39] = system: SKG-IIIa; type: functional, cell-based, Homo sapiens; conditions: Homo sapiens, SKG-IIIa;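 also: cell growth inhibition, read out with a cell viability assay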
Description: SANGER: Inhibition of human SKG-IIIa cell growth in a cell viability assay.

[40] = system: SNU-387; type: functional, cell-based, Homo sapiens; conditions: Homo sapiens, SNU-387
Description: SANGER: Inhibition of human SNU-387 cell growth in a cell viability assay.

[41] = system: T-24; type: functional, cell-based, Homo sapiens; conditions: Homo sapiens, T-24;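 also: growth inhibition of T-24 cells, read out with a cell viability assay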
Description: SANGER: Inhibition of human T-24 cell growth in a cell viability assay.

[42] = system: 5637; type: functional, cell-based, Homo sapiens; conditions: Homo sapiens
Description: SANGER: Inhibition of human 5637 cell growth in a cell viability assay.

[43] = system: 8-MG-BA; type: functional, cell-based, Homo sapiens; conditions: Homo sapiens, 8-MG-BA;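 also: growth inhibition of 8-MG-BA cells, read out with a cell viability assay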
Description: SANGER: Inhibition of human 8-MG-BA cell growth in a cell viability assay.

[44] = system: A 172; type: functional, cell-based, Homo sapiens; conditions: Homo sapiens, A 172;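 also: growth inhibition of A172 cells, measured with a cell viability readout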
Description: SANGER: Inhibition of human A172 cell growth in a cell viability assay.

[45] = system: BB30-HNC; type: functional, cell-based, Homo sapiens; conditions: Homo sapiens, BB30-HNC;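 also: growth inhibition of the cultured cell line, read out by a cell viability assay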
Description: SANGER: Inhibition of human BB30-HNC cell growth in a cell viability assay.

[46] = system: BFTC-905; type: functional, cell-based, Homo sapiens; conditions: Homo sapiens, BFTC-905
Description: SANGER: Inhibition of human BFTC-905 cell growth in a cell viability assay.

[47] = system: BXPC-3; type: functional, cell-based, Homo sapiens; conditions: Homo sapiens, BXPC-3;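 also: growth inhibition of human BxPC-3 cells, read out by a cell viability assay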
Description: SANGER: Inhibition of human BxPC-3 cell growth in a cell viability assay.

[48] = system: CAL-72; type: functional, cell-based, Homo sapiens; conditions: Homo sapiens, CAL-72;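 also: cell viability assay measuring inhibition of proliferation in the CAL-72 cell line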
Description: SANGER: Inhibition of human CAL-72 cell growth in a cell viability assay.

[49] = system: TE-10; type: functional, cell-based, Homo sapiens; conditions: Homo sapiens, TE-10;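 also: growth inhibition of TE-10 cells, measured by a cell viability assay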
Description: SANGER: Inhibition of human TE-10 cell growth in a cell viability assay.

[50] = system: TK-10; type: functional, cell-based, Homo sapiens; conditions: Homo sapiens, TK-10;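 also: growth inhibition of TK-10 cells, read out in a cell viability assay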
Description: SANGER: Inhibition of human TK10 cell growth in a cell viability assay.

[51] = system: CHL-1; type: functional, cell-based, Homo sapiens; conditions: Homo sapiens, CHL-1;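 also: cell growth inhibition, read out with a cell viability assay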
Description: SANGER: Inhibition of human CHL-1 cell growth in a cell viability assay.

Measured: IC50

C=CCc1cccc(/C=N/NC(=O)CN2CCN(Cc3ccccc3)CC2)c1O [PAC-1]
2.09 µM: [47]
> 2560 nM: [17]
1440 nM: [2]
2500 nM: [11]
1.46 µM: [13]
1.34 µM: [15]
> 2.56 µM: all other assays above

Cn1cc(C2=C(c3ccc(Cl)cc3Cl)C(=O)NC2=O)c2ccccc21 [SB-216763]
1540 nM: [17]
> 10000 nM: [2] | [11]
not listed: [19] | [30]
> 10 µM: all other assays above

O=C1N=C(NCc2cccs2)S/C1=C\c1ccc2ncccc2c1
3.14 µM: [43]
> 5000 nM: [2] | [11] | [17]
3.09 µM: [42]
not listed: [12]
> 5 µM: all other assays above

COc1ccc(C2=N[C@@H](c3ccc(Cl)cc3)[C@@H](c3ccc(Cl)cc3)N2C(=O)N2CCNC(=O)C2)c(OC(C)C)c1 [NUTLIN-3]
1420 nM: [17]
4.24 µM: [1]
2.68 µM: [44]
7.87 µM: [29]
2020 nM: [2]
2.56 µM: [35]
5.57 µM: [33]
2650 nM: [11]
not listed: [12]
> 8 µM: all other assays above

O=c1cc(-c2cccc3c2Sc2ccccc2S3)oc(N2CCOCC2)c1 [KU-55933]
5.48 µM: [48]
> 10000 nM: [2] | [11] | [17]
not listed: [19] | [30]
> 10 µM: all other assays above

Source: ChEMBL document CHEMBL1201861, “Genomics of Drug Sensitity in Cancer screening data, Wellcome Trust Sanger Institute”
